Patent US11712436B2, “Theranostic test for antifungal treatment of inflammatory diseases” (Cornell University, priority 2017, dated 2023)

Key:
[1] = tested on: intestinal fungi; experiment: DSS colitis in ΔCX3CR1 mice with fungal targeting by fluconazole; assay type: in vivo; details: 3% DSS in drinking water, fluconazole 0.5 mg/ml in drinking water starting 4 days prior the first DSS dose, FIG. 3E-G
Method: Cx3cr1^GFP/GFP, C57BL/6J, Cd11c-cre^+/+, Irf4^fl/fl, Cx3cr1^tm3(DTR)Litt/J (Cx3cr1^DTR), Syk^fl/fl, Cx3cr1^tm2.1(cre/ERT2)Jung/J (Cx3cr1-cre/ERT2^+/+), Batf3^−/−, Thy1.1, and OVA-specific CD4^+ (OT-II) T-cell receptor-transgenic (H-2^b) mice were purchased from the Jackson Laboratories (Bar Harbor, Me.). […]. For depletion, mice generated through such breeding (Cd11c-cre^+/− Cx3cr1^DTR mice) and the respective littermate controls (Cd11c-cre^−/− Cx3cr1^DTR) were injected for three consecutive days with 100 ng of DT i.p followed by maintenance injection every other day for the length of the experiments. Depleted mice were designated throughout the study as ΔCX3CR1 mice. Irf4^fl/fl mice were bred to hemizygous Cd11c-cre^+/− mice to allow for genetic ablation of CD11c^+ CD11b^+ CD103^+ dendritic cells (Cd11c-cre^+/− Irf4^fl/fl mice, designated throughout the study as ΔIrf4 mice) and the generation of littermate controls (Cd11c-cre^−/− Irf4^fl/fl mice). Syk^fl/fl mice were bred to Cx3cr1-cre/ERT2^+/+ to allow for the selective depletion of Syk in CX3CR1 expressing cells upon administration of tamoxifen. […]
Cx3cr1^DTR or littermate control mice were injected with DT for three consecutive days, prior to the induction of colitis with 3% (w/v) Dextran sulfate sodium (DSS, MP Biomedicals, LLC, Aurora, Ohio) in the drinking water. […] Body weight and the presence of occult blood were assessed daily. […]

[2] = tested on: most Candida species and other dimorphic fungi; details: when used during the onset of intestinal disease; cited from earlier work

In the case of `OC(Cn1cncn1)(Cn1cncn1)c1ccc(F)cc1F` [fluconazole], the “intestinal disease (DSS colitis: body weight change, neutrophil infiltration in colonic LP, H&E histology)” value [1] is given as “significantly ameliorated intestinal disease” and the “colitis in mice with defects in antifungal immunity” value [2] is given as “ameliorates colitis”.
